Measurements reported in patent publication US7947695B2, “5-membered annelated heterocyclic pyrimidines as kinase inhibitors” (Janssen Pharmaceutica NV, priority 2005, dated 2011).

How the values were obtained:
Format in all cases: biochemical
CDK4/cyclinD1 = CDK4/cyclinD1 (Homo sapiens, UniProt P11802); experiment: In vitro filtration assay for CDK4 inhibitory activity (pRb phosphorylation, [33P]-ATP); details: GST-pRb substrate, 1 μM unlabeled ATP, 25° C. 45 minutes, read-out: cdk4 filter (pIC50) (converted)
CDK4/cyclinD1, sequence (P11802 whole entry): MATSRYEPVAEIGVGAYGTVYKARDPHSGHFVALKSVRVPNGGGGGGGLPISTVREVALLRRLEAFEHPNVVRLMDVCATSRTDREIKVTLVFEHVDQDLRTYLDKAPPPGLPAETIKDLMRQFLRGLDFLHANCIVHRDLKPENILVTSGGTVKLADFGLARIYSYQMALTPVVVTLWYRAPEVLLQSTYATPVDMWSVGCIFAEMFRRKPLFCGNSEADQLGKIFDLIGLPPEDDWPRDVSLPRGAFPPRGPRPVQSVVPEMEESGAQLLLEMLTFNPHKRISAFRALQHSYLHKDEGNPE
CDK4/cyclinD1, sequence (P24385 whole entry partner): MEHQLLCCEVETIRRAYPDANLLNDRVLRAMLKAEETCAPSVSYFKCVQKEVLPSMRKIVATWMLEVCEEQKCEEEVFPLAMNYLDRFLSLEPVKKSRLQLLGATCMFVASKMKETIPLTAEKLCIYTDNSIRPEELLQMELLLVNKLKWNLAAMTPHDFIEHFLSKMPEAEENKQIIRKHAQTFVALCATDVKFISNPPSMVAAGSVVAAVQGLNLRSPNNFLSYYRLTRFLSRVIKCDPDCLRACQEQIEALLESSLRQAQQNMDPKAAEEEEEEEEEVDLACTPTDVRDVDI
Description: (§1) Compounds of the present invention were tested in an in vitro filtration assay assessing CDK4 activity by means of its pRb-phosphorylation activity using [^33P]-ATP as phosphor donor. The radioactive phosphorylated pRb is then captured on filtermats and the incorporated [^33P] quantitated using a phosphorage storage screen.
The CDK4 kinase reaction is performed at 25° C. for 45 minutes in a 96-well microtiterplate. The 25 μl reaction volume contains 50 mM Hepes pH 7.5, 10 mM NaF, 10 mM MgCl2, 1 mM Na3VO4, 1 μM unlabeled ATP, 1 mM DTT, 0.5 μCi AT^33P, 0.76 μg/well GST-pRb, 50 ng CDK4/cyclinD1/well and 0.2% compound in 100% DMSO.
(§2) The reaction is stopped by adding 5 μl of a 3% phosphoric acid solution. 10 μl of the reaction mixture is then spotted onto a Filtermat P30 filter (Wallac) and washed 3 times for 5 min. in 75 mM phosphoric acid and 1 time for 5 min. in methanol prior to drying and quantification on the Typhoon (Amersham) using a phosphorage storage screen.
(§3) For each experiment, controls (containing enzyme (complex) and DMSO without compound), a blank incubation (containing DMSO but no enzyme (complex) or compound) and samples (containing enzyme (complex) and compound dissolved in DMSO) were run in parallel. All compounds tested were dissolved and eventually further diluted in DMSO. […] In each test, the blank value was subtracted from both the control and the sample values. The control sample represented maximal enzyme activity. For each sample, the amount of cpm was expressed as a percentage of the mean cpm value of the controls. When appropriate, IC50-values (concentration of the drug, needed to reduce the enzyme activity to 50% of the control) were computed using linear interpolation between the experimental points just above and below the 50% level. Herein the effects of test compounds are expressed as pIC50 (the negative log value of the IC50-value).

AURORA B = AURORA B (Homo sapiens, UniProt Q96GD4); experiment: In vitro filtration assay for AURORA B inhibitory activity; details: peptide (C(LRRWSLG)×4), 1 μM unlabeled ATP, 25° C. 40 minutes, read-out: Aurora B see C.3 (pIC50) (converted)
AURORA B, sequence (Q96GD4 whole entry): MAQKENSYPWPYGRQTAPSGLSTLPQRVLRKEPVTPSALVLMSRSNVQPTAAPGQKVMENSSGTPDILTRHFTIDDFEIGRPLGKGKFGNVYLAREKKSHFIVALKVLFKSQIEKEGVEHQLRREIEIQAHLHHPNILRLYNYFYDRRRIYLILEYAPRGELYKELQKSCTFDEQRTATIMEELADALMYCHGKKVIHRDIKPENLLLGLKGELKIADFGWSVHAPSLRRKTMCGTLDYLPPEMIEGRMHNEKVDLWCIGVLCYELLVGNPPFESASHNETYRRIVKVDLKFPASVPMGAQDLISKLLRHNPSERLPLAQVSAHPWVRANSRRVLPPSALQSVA
Description: as §1, with “AURORA B” for “CDK4”, “substrate-phosphorylation” for “pRb-phosphorylation”, “substrate” for “pRb”
The Aurora-B kinase reaction is performed at 25° C. for 40 minutes in a 96-well microtiterplate. The 25 μl reaction volume contains 60 mM Hepes pH 7.5, 3 mM MgCl2, 3 mM MnCl2, 3 μM Na3VO4, 50 μg/ml PEG20000, 1 μM unlabeled ATP, 1 mM DTT, 0.2 μCi AT^33P, 0.25 μg/well peptide (C(LRRWSLG)×4),100 ng Aurora-B/well and 0.2% compound in 100% DMSO. The reaction is stopped by adding 5 μl of a 3% phosphoric acid solution. 10 μl of the reaction mixture is then spotted onto a Filtermat P30 filter (Wallac) and washed 3 times for 5 min. in 75 mM phosphoric acid and 1 time for 5 min. in methanol prior to drying and quantification on the Typhoon (Amersham) using a phosphorage storage screen.
as §3

AURORA A = biological target: T1, AURORA A (Homo sapiens, UniProt O14965); experiment: In vitro filtration assay for AURORA A inhibitory activity; details: Kemptide substrate, 1 μM unlabeled ATP, 25° C. 40 minutes, read-out: Aurora A see C.2 (pIC50) (converted)
T1 sequence (O14965 1-403): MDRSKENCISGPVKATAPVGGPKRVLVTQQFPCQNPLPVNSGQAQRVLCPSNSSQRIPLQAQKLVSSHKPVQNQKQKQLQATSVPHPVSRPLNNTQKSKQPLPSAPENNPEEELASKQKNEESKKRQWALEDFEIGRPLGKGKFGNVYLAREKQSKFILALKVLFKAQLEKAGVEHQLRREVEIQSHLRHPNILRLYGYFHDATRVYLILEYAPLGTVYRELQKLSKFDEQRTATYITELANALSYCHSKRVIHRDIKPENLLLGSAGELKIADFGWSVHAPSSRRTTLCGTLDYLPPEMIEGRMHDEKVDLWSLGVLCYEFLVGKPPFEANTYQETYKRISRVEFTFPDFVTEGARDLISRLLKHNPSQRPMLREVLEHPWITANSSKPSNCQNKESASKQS
Description: as §1, with “AURORA A” for “CDK4”, “substrate-phosphorylation” for “pRb-phosphorylation”, “substrate” for “pRb”
The Aurora-A kinase reaction is performed at 25° C. for 40 minutes in a 96-well microtiterplate. The 25 μl reaction volume contains 12 mM MOPS pH 7, 0.4 mM EDTA, 0.002% Brij35, 1% glycerol, 0.02% beta-mercapto-ethanol, 0.2 mg/ml BSA, 1 μM unlabeled ATP, […] [^33P]-ATP, 200 μM Kemptide, 3 ng Aurora A/well and 0.2% compound in 100% DMSO.
as §2, §3

Compound	IC50 (CDK4/cyclinD1)	IC50 (AURORA B)	IC50 (AURORA A)
COCCCN(C(=O)OC(C)(C)C)C1CCN(Cc2ccc(N(C(=O)OC(C)(C)C)c3ncc4cnn(C5CCCCC5)c4n3)cc2)CC1 [compound 46]	> 10000 nM	> 10000 nM	> 10000 nM
COCCCNC1CCN(Cc2ccc(Nc3ncc4cnn(C5CCCCC5)c4n3)cc2)CC1 [compound 47]	31.6 nM	3980 nM	316 nM
CN1CCN(Cc2ccc(N(C(=O)OC(C)(C)C)c3ncc4cnn(C5CCOCC5)c4n3)cc2)CC1 [compound 48]	> 10000 nM	> 10000 nM	> 10000 nM
CC(C)(C)OC(=O)N(c1ccc(CN2CCOCC2)cc1)c1ncc2cnn(C3CCOCC3)c2n1 [compound 50]	> 10000 nM	> 10000 nM	> 10000 nM
c1cc(Nc2ncc3cnn(C4CCOCC4)c3n2)ccc1CN1CCOCC1 [compound 51]	5010 nM	> 10000 nM	1000 nM
c1cc(Nc2ncc3cnn([C@H]4C[C@@H]5CC[C@H]4C5)c3n2)ccc1CN1CCOCC1 [compound 52]	79.4 nM	316 nM	158 nM
CC(C)(O)CN1CCN(Cc2ccc(Nc3ncc4cnn(C5CCOCC5)c4n3)cc2)CC1 [compound 53]	501 nM	7940 nM	> 10000 nM
OCCN1CCN(Cc2ccc(Nc3ncc4cnn(C5CCOCC5)c4n3)cc2)CC1 [compound 54]	631 nM	> 10000 nM	> 10000 nM
CC(C)(C)OC(=O)N(c1ccc(CN2CCN(CCO)CC2)cc1)c1ncc2cnn(C3CCOCC3)c2n1 [compound 55]	> 10000 nM	> 10000 nM	> 10000 nM
O=C(c1ccc(Nc2ncc3cnn(C4CCCCC4)c3n2)cc1)N1CCOCC1 [compound 56]	25.1 nM	3160 nM	126 nM
CN1CCN(C(=O)c2ccc(Nc3ncc4cnn([C@H]5C[C@@H]6CC[C@H]5C6)c4n3)cc2)CC1 [compound 57]	100 nM	7940 nM	100 nM
CC(C)(O)CN1CCN(C(=O)c2ccc(Nc3ncc4cnn(C5CCCCC5)c4n3)cc2)CC1 [compound 58]	631 nM	1260 nM	126 nM
c1cc(Nc2ncc3cnn(C4CCCCC4)c3n2)ccc1CNC1CCNCC1 [compound 59]	15.8 nM	> 10000 nM	794 nM
CC(C)(C)OC(=O)N1CCC(N(Cc2ccc(Nc3ncc4cnn(C5CCCCC5)c4n3)cc2)C(=O)OC(C)(C)C)CC1 [compound 61]	> 10000 nM	> 10000 nM	1260 nM
CN1CCC(N(Cc2ccc(Nc3ncc4cnn(C5CCCCC5)c4n3)cc2)C(=O)OC(C)(C)C)CC1 [compound 62]	25.1 nM	6310 nM	158 nM
CC(C)(O)CN1CCC(NCc2ccc(Nc3ncc4cnn(C5CCCCC5)c4n3)cc2)CC1 [compound 63]	25.1 nM	2510 nM	1000 nM
CC(C)(C)OC(=O)N(c1ccc(CNCCN2CCOCC2)cc1)c1ncc2cnn([C@H]3C[C@@H]4CC[C@H]3C4)c2n1 [compound 64]	6310 nM	> 10000 nM	> 10000 nM
c1cc(Nc2ncc3cnn([C@H]4C[C@@H]5CC[C@H]4C5)c3n2)ccc1CNCCN1CCOCC1 [compound 65]	200 nM	501 nM	501 nM
c1cc(Nc2ncc3cnn(C4CCCCC4)c3n2)ccc1CNC1CCOCC1 [compound 67]	251 nM	1000 nM	1580 nM
CN1CCC(NCc2ccc(N(C(=O)OC(C)(C)C)c3ncc4cnn([C@H]5C[C@@H]6CC[C@H]5C6)c4n3)cc2)CC1 [compound 68]	1000 nM	7940 nM	6310 nM
CN1CCC(NCc2ccc(Nc3ncc4cnn([C@H]5C[C@@H]6CC[C@H]5C6)c4n3)cc2)CC1 [compound 69]	25.1 nM	1000 nM	631 nM

Next, values leading:

IC50 (CDK4/cyclinD1)	IC50 (AURORA B)	IC50 (AURORA A)	Compound
> 10000 nM	> 10000 nM	> 10000 nM	CC(C)(C)OC(=O)N(c1ccc(CNCCN2CCOCC2)cc1)c1ncc2cnn(C3CCOCC3)c2n1 [compound 70]
2510 nM	> 10000 nM	5010 nM	c1cc(Nc2ncc3cnn(C4CCOCC4)c3n2)ccc1CNCCN1CCOCC1 [compound 71]
> 10000 nM	> 10000 nM	> 10000 nM	CN1CCC(NCc2ccc(N(C(=O)OC(C)(C)C)c3ncc4cnn(C5CCOCC5)c4n3)cc2)CC1 [compound 72]
631 nM	> 10000 nM	> 10000 nM	CN1CCC(NCc2ccc(Nc3ncc4cnn(C5CCOCC5)c4n3)cc2)CC1 [compound 73]
126 nM	1260 nM	1580 nM	OCCN1CCC(NCc2ccc(Nc3ncc4cnn(C5CCCCC5)c4n3)cc2)CC1 [compound 75]
> 10000 nM	> 10000 nM	> 10000 nM	COCCCN1CCC(NCc2ccc(N(C(=O)OC(C)(C)C)c3ncc4cnn(C5CCCCC5)c4n3)cc2)CC1 [compound 76]
79.4 nM	2000 nM	> 10000 nM	COCCCN1CCC(NCc2ccc(Nc3ncc4cnn(C5CCCCC5)c4n3)cc2)CC1 [compound 77]
2000 nM	> 10000 nM	> 10000 nM	CN1CCN(Cc2ccc(Nc3ncc4[nH]c(=O)n(C5CCCCC5)c4n3)cc2)CC1 [compound 79]
3980 nM	> 10000 nM	2510 nM	CC(=O)N1CCN(c2ccc(Nc3ncc4[nH]c(=O)n(C5CCCCC5)c4n3)cc2)CC1 [compound 80]
5010 nM	> 10000 nM	> 10000 nM	O=c1[nH]c2cnc(Nc3ccc(N4CCOCC4)nc3)nc2n1C1CCCCC1 [compound 81]
2000 nM	> 10000 nM	> 10000 nM	CN(C)CCOC(=O)c1ccc(Nc2ncc3[nH]c(=O)n(C4CCCCC4)c3n2)cc1 [compound 82]
2510 nM	> 10000 nM	> 10000 nM	CN1CCN(C(=O)c2ccc(Nc3ncc4[nH]c(=O)n(C5CCCCC5)c4n3)cc2)CC1 [compound 83]
631 nM	> 10000 nM	6310 nM	CN1CCN(c2ccc(Nc3ncc4[nH]c(=O)n(C5CCCCC5)c4n3)cc2Cl)CC1 [compound 84]
> 10000 nM	> 10000 nM	3160 nM	O=c1[nH]c2cnc(Nc3ccc(S(=O)(=O)N4CCOCC4)cc3)nc2n1C1CCCCC1 [compound 85]
2510 nM	> 10000 nM	5010 nM	O=c1[nH]c2cnc(Nc3ccc(CNC4CCNCC4)cc3)nc2n1C1CCCCC1 [compound 86]
